Data reported in publication PMC11154727, “Systematic Studies on the Anti-SARS-CoV-2 Mechanisms of Tea Polyphenol-Related Natural Products” (ACS Omega, 2024).
Read-outs that look alike come from different tables or passages of the source.

How the values were obtained:
[1] = tested on: SARS-CoV-2 Delta virus (NTU92); assay: microbe, parasite or virus in culture; type: cell-based
[2] = tested on: SARS-CoV-2 Omicron BA.5 (NTU280); assay: Antiviral plaque reduction assay, Omicron BA.5 strain, Vero E6 cells; type: cell-based
[3] = tested on: wild-type SARS-CoV-2; assay: microbe, parasite or virus in culture; type: cell-based; conditions: Severe acute respiratory syndrome coronavirus 2, read-out: EC50 wild-type strain
[4] = Cytotoxicity, acid phosphatase (ACP) assay; type: cell-based; conditions: African green monkey
Procedure: (§1) Cytotoxicity of the compounds was determined using the acid phosphatase (ACP) assay. Vero E6 cells were seeded onto a 96-well culture plate at a concentration of 2 × 10^4 cells per well. Next day, the medium was removed, and each well was washed once with PBS before adding DMEM containing 2% FBS and different concentrations of test compounds. After 3 days of incubation at 37 °C, the medium was removed, and each well was washed once with PBS. Next, a buffer containing 0.1 M sodium acetate (pH = 5.0), 0.1% Triton X-100, and 5 mM p-nitrophenyl phosphate was added. After incubating at 37 °C for 30 min, 1 N NaOH was added to stop the reaction. The absorbance was measured using an ELISA reader (VERSAmax, Molecular Devices, Sunnyvale, CA) at a wavelength of 405 nm. The percentage of cell viability was calculated by using the following formula: Viability % = [ (At/As) × 100]%, where At and As represent the absorbance of the test compound and the solvent control, respectively. […] For each compound, the measurements were repeated at least 3 times to determine the averaged CC50 values and standard deviation.

[5] = tested on: recombinant ACE2 and RBD; conditions: at 60 μM; cited from earlier work
[6] = target: T1, cathepsin L (Homo sapiens, UniProt P07711); assay: Cathepsin L inhibition (Cathepsin L Protease Assay Kit, fluorescence); type: biochemical
T1 construct: purchased Abcam
Procedure: Cathepsin L activity was determined using a commercial Cathepsin L Protease Assay Kit (Abcam, U.K.) in 20 μL reaction mixtures on a 384-well plate (PerkinElmer). Different concentrations of each inhibitor were added to the assay buffer supplied with dithiothreitol (DTT) in the kit, also containing 1% DMSO from the stock solutions of inhibitors. The fluorescence intensity was monitored for 30 min at excitation and emission wavelengths of 380/460 nm. The concentration-dependent inhibition curves of cathepsin L were fitted with the equation A(I) = A(0) x {1–[I/(I + IC50)]} using GraphPad Prism (v.9.4.0). The measurements were performed in triplicate to generate the averaged IC50 values and the standard deviations.

[7] = target: T2, furin (Homo sapiens, UniProt P09958); assay: Furin inhibition (Furin Protease Assay Kit, fluorescence); type: biochemical
T2 construct: purchased BPS Bioscience 78040
Procedure: Following the protocol as described in ref ([35]) a commercial Furin Protease Assay Kit (BPS Bioscience, catalog#78040) was employed to assay furin activities. It was conducted in 20 μL reaction mixtures on a 384-well plate (PerkinElmer) comprising 0.25 ng/μL furin, 2 μM substrate, and different concentrations of inhibitors in the assay buffer with 1% DMSO from the stock solutions of compounds. Fluorescence intensity was monitored at excitation/emission wavelengths of 380/460 nm. The concentration-dependent inhibition curves of furin were fitted with the equation A(I) = A(0) x {1–[I/(I + IC50)]} using GraphPad Prism (v.9.4.0). All of the measurements were performed in triplicate to determine the averaged IC50 values and the standard deviations.

[8] = target: T3, TMPRSS2 (Homo sapiens, UniProt O15393); assay: TMPRSS2 inhibition (Boc-Gln-Ala-Arg-AMC fluorogenic substrate); type: biochemical
T3 construct: The recombinant TMPRSS2 ectodomain (residues 109–492), excluding the transmembrane domain; His tag; made in house; host or cells: ExpiSf9 insect cells (baculovirus)

[9] = target: SARS-CoV-2 3CL^pro (Severe acute respiratory syndrome coronavirus 2, UniProt P0DTD1); assay: 3CLpro inhibition (fluorogenic peptide); type: biochemical
[10] = target: SARS-CoV-2 PL^pro (Severe acute respiratory syndrome coronavirus 2, UniProt P0DTD1); assay: PLpro inhibition (proteolytic, deubiquitinating, deISGylation activities); type: biochemical
[11] = target: SARS-CoV-2 RdRp (Severe acute respiratory syndrome coronavirus 2, UniProt P0DTD1); assay: RdRp inhibition (nsp12/nsp7L8/nsp8 complex, ProFoldin kit); type: biochemical; conditions: triplicate
[12] = tested on: Vero E6 cells; assay: Cytotoxicity, acid phosphatase (ACP) assay; type: cell-based; conditions: Vero E6, 3 days
Procedure: as §1

[13] = 1.3 nM TMPRSS2, 10 μM substrate, triplicate
[14] = substrate ISG15-AMC, third of three values, read-out: IC50 PL^pro, deISGylation activity
[15] = substrate Ub-AMC, second of three values, read-out: IC50 PL^pro, deubiquitinating activity
[16] = substrate Z-Arg-Leu-Arg-Gly-Gly-AMC, first of three values, read-out: IC50 PL^pro, proteolytic activity
[17] = Severe acute respiratory syndrome coronavirus 2, Vero C1008, Delta strain, plaque reduction, Vero E6, entry treatment, read-out: EC50 δ
[18] = Severe acute respiratory syndrome coronavirus 2, Vero C1008, Omicron BA.5, plaque reduction, Vero E6, read-out: EC50 ο BA.5 (converted)
[19] = 35 nM 3CL^pro, 6 μM substrate, read-out: IC50 3CL^pro
[20] = one entry for PL^pro, the three activities not told apart, read-out: IC50 PL^pro

T1 sequence (P07711 114-333): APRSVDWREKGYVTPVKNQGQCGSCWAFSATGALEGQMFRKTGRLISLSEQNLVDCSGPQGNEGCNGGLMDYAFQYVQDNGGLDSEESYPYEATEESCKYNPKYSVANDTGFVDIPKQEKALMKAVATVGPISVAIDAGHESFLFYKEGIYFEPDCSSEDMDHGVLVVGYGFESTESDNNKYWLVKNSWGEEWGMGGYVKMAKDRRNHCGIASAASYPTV
T2 sequence (P09958 108-794): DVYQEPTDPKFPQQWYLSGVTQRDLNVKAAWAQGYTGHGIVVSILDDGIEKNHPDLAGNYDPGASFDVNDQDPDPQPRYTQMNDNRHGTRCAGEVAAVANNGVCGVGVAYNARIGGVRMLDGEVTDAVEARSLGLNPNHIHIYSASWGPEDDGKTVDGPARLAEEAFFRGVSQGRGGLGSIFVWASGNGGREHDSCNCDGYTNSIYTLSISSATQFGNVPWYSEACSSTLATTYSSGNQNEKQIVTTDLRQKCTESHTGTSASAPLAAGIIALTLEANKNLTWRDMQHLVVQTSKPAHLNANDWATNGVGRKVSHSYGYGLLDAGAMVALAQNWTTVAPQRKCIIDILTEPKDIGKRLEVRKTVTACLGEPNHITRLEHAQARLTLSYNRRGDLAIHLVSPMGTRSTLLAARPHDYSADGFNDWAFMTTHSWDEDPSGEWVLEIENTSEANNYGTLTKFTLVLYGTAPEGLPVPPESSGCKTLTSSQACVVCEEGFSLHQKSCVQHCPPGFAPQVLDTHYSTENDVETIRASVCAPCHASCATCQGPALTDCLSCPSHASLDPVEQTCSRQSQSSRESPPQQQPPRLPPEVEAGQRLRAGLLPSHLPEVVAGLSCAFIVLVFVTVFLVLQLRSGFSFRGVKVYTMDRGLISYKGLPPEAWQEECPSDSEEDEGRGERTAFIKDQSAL
T3 sequence (O15393 109-492 S251D/R252D/Q253D/S254D/R255K limits assumed): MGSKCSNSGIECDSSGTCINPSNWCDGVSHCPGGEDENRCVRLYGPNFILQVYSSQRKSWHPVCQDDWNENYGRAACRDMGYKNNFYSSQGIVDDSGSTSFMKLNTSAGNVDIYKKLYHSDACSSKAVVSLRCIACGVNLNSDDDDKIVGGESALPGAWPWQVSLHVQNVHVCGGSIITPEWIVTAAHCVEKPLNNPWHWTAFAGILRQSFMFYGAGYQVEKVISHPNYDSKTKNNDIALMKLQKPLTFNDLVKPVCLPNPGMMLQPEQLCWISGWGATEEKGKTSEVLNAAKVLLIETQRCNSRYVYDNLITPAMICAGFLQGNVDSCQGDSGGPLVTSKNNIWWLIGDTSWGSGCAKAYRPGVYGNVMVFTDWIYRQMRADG

| Compound | CC50 at 3 days [4] [µM] | IC50 ([6]; triplicate, mean ± SD) [µM] | IC50 ([7]; triplicate, mean ± SD) [µM] | IC50 [8, 13] [µM] | IC50 [10, 14] [µM] | IC50 [10, 15] [µM] | IC50 [10, 16] [µM] | IC50 [11] [µM] | EC50 [1, 17] [µM] | EC50 [2, 18] [µM] | IC50 [9, 19] [µM] | IC50 [10, 20] [µM] | other results |
| --- | --- | --- | --- | --- | --- | --- | --- | --- | --- | --- | --- | --- | --- |
| O=C(O[C@@H]1Cc2c(O)cc(O)cc2O[C@@H]1c1cc(O)c(=O)c2c(O)c(O)cc([C@H]3Oc4cc(O)cc(O)c4C[C@H]3OC(=O)c3cc(O)c(O)c(O)c3)c2c1)c1cc(O)c(O)c(O)c1 [TF3, theaflavin-3,3′-digallate] | > 100 | – | – | – | – | – | – | – | – | – | – | – | EC50 ([1]; Severe acute respiratory syndrome coronavirus 2, Vero C1008): 0.2 µM; EC50 ([2]; Severe acute respiratory syndrome coronavirus 2, Vero C1008, read-out: EC50 ο BA.5): 0.2 µM; EC50 [3]: 0.3 µM; inhibition of the interaction between recombinant ACE2 and RBD [5]: effectively inhibiting |
| Oc1cc(O)c2c(c1)OC(c1ccc(O)c(O)c1)C(O)C2 (stereo not shown) [catechin] | – | > 100 | > 100 | > 100 | 17.8 ± 2.2 | 24.6 ± 3.3 | 18.7 ± 3.5 | > 100 | > 10 | > 10 | – | – | IC50 [9]: > 100 µM; inhibition against 3CL^pro ([9]; in words): no inhibition; inhibition of Delta SARS-CoV-2 ([1]; at 10 μM): did not inhibit; CC50 at 3 days ([4]; Vero E6 cells, Vero E6, 3 days, read-out: CC50): 107 µM |
| O=C(O[C@@H]1Cc2c(O)cc(O)cc2O[C@@H]1c1cc(O)c(=O)c2c(O)c(O)c(O)cc2c1)c1cc(O)c(O)c(O)c1 [epitheaflagallin-3-O-gallate] | 109 ± 45.3 | > 100 | 55 ± 6.5 | 35.3 ± 2.7 | – | – | – | > 100 | 0.5 ± 0.1 | 0.6 | 31.2 ± 2.6 | > 100 | – |
| O=C(O[C@@H]1Cc2c(O)cc(O)cc2O[C@@H]1c1cc(O)c(=O)c2c(O)c(O)cc([C@H]3Oc4cc(O)cc(O)c4C[C@H]3O)c2c1)c1cc(O)c(O)c(O)c1 [theaflavin-3-gallate] | > 100 | > 100 | 36.7 ± 5.7 | 48.7 ± 3 | – | – | – | > 100 | 0.4 | 0.4 | 8.8 ± 0.8 | > 100 | – |
| O=C(O[C@@H]1Cc2c(O)cc(O)cc2O[C@@H]1c1cc(O)c(O)c2c(=O)c(O)cc([C@H]3Oc4cc(O)cc(O)c4C[C@H]3O)cc12)c1cc(O)c(O)c(O)c1 [theaflavin-3′-gallate] | 69.9 ± 12.9 | 51.1 ± 2.2 | 58.5 ± 6.4 | 6.2 ± 0.6 | – | – | – | 23.2 ± 0.4 | 0.8 ± 0.1 | 0.4 | 6.7 ± 0.8 | > 100 | – |
| O=c1c(O)cc([C@H]2Oc3cc(O)cc(O)c3C[C@H]2O)cc2c([C@H]3Oc4cc(O)cc(O)c4C[C@H]3O)cc(O)c(O)c12 [theaflavin] | 66.4 ± 3.2 | 11.1 ± 1.1 | > 100 | > 100 | 11.2 ± 1.3 | 10.6 ± 0.9 | 9.9 ± 0.9 | 40.2 ± 2.3 | 7.4 ± 0.1 | 2.2 | 16.1 ± 2.5 | – | – |
| proanthocyanidin | – | – | – | – | 7.3 ± 0.6 | 3.3 ± 0.4 | 2.4 ± 0.3 | 23.4 ± 1.3 | – | – | – | – | IC50 [6]: > 100 µM; IC50 [7]: > 100 µM; IC50 [8]: 47 ± 4.6 µM; IC50 ([9]; read-out: IC50 3CL^pro): 18.4 ± 1.1 µM; EC50 ([1]; Delta strain, plaque reduction, Vero E6, entry treatment, read-out: EC50 δ): 0.5 ± 0.1 µM; EC50 ([2]; Omicron BA.5, plaque reduction, Vero E6, read-out: EC50 ο BA.5 (converted)): 0.2 µM; CC50 [12]: > 100 µM |
